The test addresses T1, hGIP-R (Homo sapiens, UniProt P48546).
T1 construct: expressed in transfected cells; host or cells: HEK-293 clonal cell lines
T1 sequence (P48546 22-466): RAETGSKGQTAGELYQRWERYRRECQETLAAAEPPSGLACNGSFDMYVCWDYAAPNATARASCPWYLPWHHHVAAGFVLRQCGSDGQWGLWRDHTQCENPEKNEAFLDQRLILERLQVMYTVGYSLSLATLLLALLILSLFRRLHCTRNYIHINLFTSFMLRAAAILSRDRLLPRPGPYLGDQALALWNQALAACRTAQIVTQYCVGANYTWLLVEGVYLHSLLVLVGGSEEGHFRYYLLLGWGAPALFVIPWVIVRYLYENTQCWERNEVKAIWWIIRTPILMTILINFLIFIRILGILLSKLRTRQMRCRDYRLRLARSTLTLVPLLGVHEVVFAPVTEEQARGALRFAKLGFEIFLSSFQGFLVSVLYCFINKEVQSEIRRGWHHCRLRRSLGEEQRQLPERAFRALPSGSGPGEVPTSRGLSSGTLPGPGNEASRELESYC
Briefly: Functional hGIP-R Assay (cAMP formation, HTRF). Format: cell-based. Conditions: for Emax: cAMP efficacy, percent of maximal response to GIP(1-42)OH, 37° C., 0.1% bovine casein, arithmetic mean ± SEM; for EC50: cAMP potency, HEK-293 cells expressing hGIP-R, incubated at 37° C. in the presence of 0.1% bovine casein, geometric mean, read-out: Human GIP-R EC50, nM (SEM, n). A digest of the protocol:
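Relative EC50 and Emax came from four-parameter logistic fits of cAMP as a percent of the human GIP (1-42) OH maximal response. The cAMP was measured by competitive HTRF after 30 min, 37 °C compound exposure of hGIP-R HEK-293 clones in IBMX (250 μM)-containing medium.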
(cAMP levels reflect the balance of adenylyl cyclase and phosphodiesterase activity.)

Take `Cn1cc2cc(-c3ccc([C@H]4C[C@@]45CCN([C@H](Cc4cnn(C(F)F)c4)C(=O)NC(C)(C)Cn4nc(C(F)(F)F)cc4P(C)(C)=O)C5=O)c(Cl)c3)cnc2n1` [Example 163, (R)-2-((1S,3R)-1-(2-chloro-4-(2-methyl-2H-pyrazolo[3,4-b]pyridin-5-yl)phenyl)-4-oxo-5-azaspiro[2.4]heptan-5-yl)-3-(1-(difluoro-methyl)-1H-pyrazol-4-yl)-N-(1-(5-(dimethyl-phosphoryl)-3-(trifluoro-methyl)-1H-pyrazol-1-yl)-2-methylpropan-2-yl)propanamide]: the Emax stood at 109% and the EC50 is 3.95 nM.

On to `CCn1cc2cc(-c3ccc([C@H]4C[C@@]45CCN([C@H](Cc4cnn(C(F)F)c4)C(=O)NC(C)(C)Cn4nc(C(F)(F)F)cc4-c4cnc(C(C)(C)O)nc4)C5=O)c(C)n3)cnc2n1` [Example 164, (R)-3-(1-(difluoromethyl)-1H-pyrazol-4-yl)-2-((1R,3R)-1-(6-(2-ethyl-2H-pyrazolo[3,4-b]pyridin-5-yl)-2-methylpyridin-3-yl)-4-oxo-5-azaspiro[2.4]heptan-5-yl)-N-(1-(5-(2-(2-hydroxypropan-2-yl)pyrimidin-5-yl)-3-(trifluoromethyl)-1H-pyrazol-1-yl)-2-methylpropan-2-yl)propanamide], for which the Emax came out at 53.3 ± 0.286% and the EC50 amounted to 4.31 nM.

In the case of `Cc1cn2cc(-c3ccc([C@H]4C[C@@]45CCN([C@H](Cc4cnn(C(F)F)c4)C(=O)NC(C)(C)Cn4nc(C(F)(F)F)cc4-c4ccn(C6CC6)c(=O)c4)C5=O)c(Cl)c3)cnc2n1` [Example 165, (R)-2-((1S,3R)-1-(2-chloro-4-(2-methylimidazo[1,2-a]pyrimidin-6-yl)phenyl)-4-oxo-5-azaspiro[2.4]heptan-5-yl)-N-(1-(5-(1-cyclopropyl-2-oxo-1,2-dihydropyridin-4-yl)-3-(trifluoromethyl)-1H-pyrazol-1-yl)-2-methylpropan-2-yl)-3-(1-(difluoromethyl)-1H-pyrazol-4-yl)propanamide], the Emax stood at 65.7 ± 4.25% and the EC50 came out at 0.44 nM.

For the molecule `COCc1cn2cc(-c3ccc([C@H]4C[C@@]45CCN([C@H](Cc4cnn(C(F)F)c4)C(=O)NC(C)(C)Cn4nc(C(F)(F)F)cc4-c4ccc(C(C)(C)O)nc4)C5=O)c(C)n3)cnc2n1` [Example 168, (R)-3-(1-(difluoromethyl)-1H-pyrazol-4-yl)-N-(1-(5-(6-(2-hydroxypropan-2-yl)pyridin-3-yl)-3-(trifluoromethyl)-1H-pyrazol-1-yl)-2-methylpropan-2-yl)-2-((1R,3R)-1-(6-(2-(methoxymethyl)imidazo[1,2-a]pyrimidin-6-yl)-2-methylpyridin-3-yl)-4-oxo-5-azaspiro[2.4]heptan-5-yl)propanamide], the Emax stood at 110% and the EC50 amounted to 1.81 nM.

Consider `Cc1nc(-c2cnc3nn(C4CC4)cc3c2)ccc1[C@H]1C[C@@]12CCN([C@H](Cc1cnn(C(F)F)c1)C(=O)NC(C)(C)Cn1nc(C(F)(F)F)cc1-c1ccn(C3CC3)c(=O)c1)C2=O` [Example 169, (R)—N-(1-(5-(1-cyclopropyl-2-oxo-1,2-dihydropyridin-4-yl)-3-(trifluoromethyl)-1H-pyrazol-1-yl)-2-methylpropan-2-yl)-2-((1R,3R)-1-(6-(2-cyclopropyl-2H-pyrazolo[3,4-b]pyridin-5-yl)-2-methylpyridin-3-yl)-4-oxo-5-azaspiro[2.4]heptan-5-yl)-3-(1-(difluoromethyl)-1H-pyrazol-4-yl)propanamide], for which the Emax was determined as 58.9 ± 1.86% and the EC50 stood at 1.15 nM.

A word on the Emax: it is the greatest response seen or fitted, relative to the assay's reference. What is called EC50 is the concentration giving half of the maximal effect.

Values taken from patent publication US20260108546A1 (ELI LILLY AND COMPANY, priority 2024, published 2026).
